Test results taken from patent publication US20050101518A1, “Methods of treating conditions associated with an EDG-2 receptor” (priority 2002, published 2005).
pIC50: −log10 of the molar value.

Experiments:
Edg 1 receptor = biological target: T1, Edg 1 receptor (Homo sapiens, UniProt P21453); assay: Intracellular calcium measurement (FLIPR), S1P-stimulated calcium increases in HTC cells expressing Edg 1; type: cell-based; conditions: FIG. 1 and 2
T1 construct: expressed in transfected cells; host or cells: HTC (rat hepatoma) cells
T1 sequence (P21453 whole entry): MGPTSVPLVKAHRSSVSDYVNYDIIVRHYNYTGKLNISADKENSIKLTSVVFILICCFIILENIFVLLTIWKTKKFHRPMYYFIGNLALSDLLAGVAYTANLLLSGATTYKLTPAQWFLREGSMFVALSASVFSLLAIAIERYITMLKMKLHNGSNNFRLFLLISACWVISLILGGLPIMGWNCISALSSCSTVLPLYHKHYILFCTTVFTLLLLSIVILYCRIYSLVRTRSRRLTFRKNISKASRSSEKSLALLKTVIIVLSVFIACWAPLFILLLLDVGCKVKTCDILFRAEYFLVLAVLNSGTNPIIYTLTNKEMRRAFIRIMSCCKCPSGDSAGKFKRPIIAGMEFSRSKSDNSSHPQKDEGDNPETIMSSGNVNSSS

Edg 6 receptor = biological target: T2, Edg 6 receptor (Homo sapiens, UniProt O95977); assay: Intracellular calcium measurement (FLIPR), S1P-stimulated calcium increases in HTC cells expressing Edg 6; type: cell-based; conditions: for inhibition of S1P-stimulated calcium increases, Edg 6: FIG. 1 and 2; for pIC50: calcium mobilization
T2 construct: expressed in transfected cells; host or cells: HTC (rat hepatoma) cells
T2 sequence (O95977 1-384): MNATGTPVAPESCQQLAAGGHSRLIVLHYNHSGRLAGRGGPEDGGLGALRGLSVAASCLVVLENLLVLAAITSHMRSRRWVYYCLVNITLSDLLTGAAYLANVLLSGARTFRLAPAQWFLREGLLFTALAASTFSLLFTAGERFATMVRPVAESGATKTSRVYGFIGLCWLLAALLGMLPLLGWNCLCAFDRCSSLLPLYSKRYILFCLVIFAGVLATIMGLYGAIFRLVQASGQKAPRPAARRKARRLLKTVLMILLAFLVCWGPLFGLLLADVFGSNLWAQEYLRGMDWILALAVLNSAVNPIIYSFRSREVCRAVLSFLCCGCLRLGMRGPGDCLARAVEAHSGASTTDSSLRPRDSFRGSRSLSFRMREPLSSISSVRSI

Edg-4 receptor = biological target: T3, Edg-4 receptor (Homo sapiens, UniProt Q9HBW0); assay: Intracellular calcium measurement (FLIPR), LPA-stimulated calcium increases in HTC cells expressing Edg-4; type: cell-based; conditions: FIG. 1 and 2
T3 construct: expressed in transfected cells; host or cells: HTC (rat hepatoma) cells
T3 sequence (Q9HBW0 whole entry): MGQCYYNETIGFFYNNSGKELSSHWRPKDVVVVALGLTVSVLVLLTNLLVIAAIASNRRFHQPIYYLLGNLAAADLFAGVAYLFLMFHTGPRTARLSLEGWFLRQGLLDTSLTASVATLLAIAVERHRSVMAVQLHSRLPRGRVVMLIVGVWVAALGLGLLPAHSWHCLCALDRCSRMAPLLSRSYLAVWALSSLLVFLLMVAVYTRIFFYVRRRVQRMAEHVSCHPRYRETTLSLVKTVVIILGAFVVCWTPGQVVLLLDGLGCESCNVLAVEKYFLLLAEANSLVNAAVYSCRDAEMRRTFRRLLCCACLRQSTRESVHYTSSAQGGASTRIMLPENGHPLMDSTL

Edg-7 receptor = biological target: T4, Edg-7 receptor (Homo sapiens, UniProt Q9UBY5); assay: Intracellular calcium measurement (FLIPR), LPA-stimulated calcium increases in HTC cells expressing Edg-7; type: cell-based; conditions: FIG. 1 and 2
T4 construct: expressed in transfected cells; host or cells: HTC (rat hepatoma) cells
T4 sequence (Q9UBY5 whole entry): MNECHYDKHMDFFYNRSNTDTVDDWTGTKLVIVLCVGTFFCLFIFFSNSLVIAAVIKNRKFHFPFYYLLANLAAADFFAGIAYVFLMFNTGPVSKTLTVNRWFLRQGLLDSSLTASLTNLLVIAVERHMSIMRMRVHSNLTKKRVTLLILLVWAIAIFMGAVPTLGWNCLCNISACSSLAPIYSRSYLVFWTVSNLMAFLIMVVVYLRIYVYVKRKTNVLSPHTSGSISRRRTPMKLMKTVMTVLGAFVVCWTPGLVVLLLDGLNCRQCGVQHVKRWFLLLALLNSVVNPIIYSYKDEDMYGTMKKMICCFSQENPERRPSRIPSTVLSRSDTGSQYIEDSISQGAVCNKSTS

Edg-2 receptor = biological target: T5, Edg-2 receptor (Homo sapiens, UniProt Q92633); assay: Intracellular calcium measurement (FLIPR), LPA-stimulated calcium increases in rat hepatoma (HTC) cells stably expressing Edg-2; type: cell-based; conditions: for inhibition of the Edg 2 receptor: FIG. 1 and 2; for pIC50: calcium mobilization, HTC cells expressing Edg 2; for Fold Selective: selectivity for Edg-2 relative to other Edg receptors
T5 construct: expressed in transfected cells
T5 sequence (Q92633 whole entry): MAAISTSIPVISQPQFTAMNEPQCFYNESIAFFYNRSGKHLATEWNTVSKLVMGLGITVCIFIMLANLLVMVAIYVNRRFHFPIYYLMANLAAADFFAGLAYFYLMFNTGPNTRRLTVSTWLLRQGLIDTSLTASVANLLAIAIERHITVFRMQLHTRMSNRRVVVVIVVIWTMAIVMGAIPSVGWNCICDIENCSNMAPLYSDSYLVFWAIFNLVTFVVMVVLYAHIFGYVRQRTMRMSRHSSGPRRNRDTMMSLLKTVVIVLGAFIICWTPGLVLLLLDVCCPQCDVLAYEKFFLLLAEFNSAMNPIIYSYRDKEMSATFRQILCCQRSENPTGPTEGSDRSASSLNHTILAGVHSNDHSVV
Source text: (§1) LPA receptors such as Edg-2, couple to calcium effector pathways, and result in increases in intracellular calcium following receptor activation (An, 1998, J. Cell. Biochem. Supp., 30-31: 147-157). This biological response lends itself to a very efficient, high-throughput screen using a Fluorescence Imaging Plate Reader (FLIPR; Molecular Devices, Sunnyvale, Calif.). The FLIPR system is a real-time, cell-based assay system with continuous fluorescence detection using a cooled CCD camera. The FLIPR system was used to developing an Edg-2 receptor screen. Rat hepatoma cells stably expressing Edg-2 receptor were plated on 384-well plates and loaded with a calcium dye loading kit (Molecular Devices, Sunnyvale, Calif.) for 1 hour at room temperature. Cells were then placed on the FLIPR^384 (Molecular Devices, Sunnyvale, Calif.) and excited by an argon laser at 488 nm. The data for the entire 384-well plate was updated every second. An integrated robotic pipettor allowed for simultaneous compound addition into each individual well in the plate.

[1] = tested on: Muscarinic non-selective, Central; conditions: significance criteria ≧50% of max stimulation or inhibition; Table 2
Protocol: (§2) A radioligand binding assay was performed using adrenergic α1 according to the method of Greengrass and Bremner 1979, Eur. J. Pharmacol. 55:323-326. A radioligand binding assay was performed using adrenergic α2 according to the method of Boyajian and Leslie, 1987, J. Pharmacol. Exp. Ther. 241:1092-1098. A redioligand binding assay was performed using adrenergic β according to the method of Feve et al., 1994, Proc. Natl. Acad. Sci. USA 91:5677-5681. A radioligand binding assay was performed using angiotensin AT2 according to the method of Whitebread el al., 1991, Biochem. Biophys. Res. Comm. 181:1365-1371. A radioligand binding assay was performed using calcium channel Type L, dihydropyridine according to the method of Ehlert et al., 1982, Life Sci. 30:2191-2202. A radioligand binding assay was performed using dopamine D2L according to the method of Bunzo et al., 1988, Nature 336:783-787. A radioligand binding assay was performed using endothelin ETA according to the method of Mihara et al., 1994, J. Phrmacol. Exp Ther. 268:1122-1127. A radioligand binding assay was performed using histamine H1 Central according to the method of Hill et al., 1978, J. Neurochem. 31:997-1004. A radioligand binding assay was performed using Muscarinic non-selective, Central according to the method of Luthin and Wolfe, 1984, J. Pharmacol. Exp. Ther. 228:648-655. A radioligand binding assay was performed using serotonin 5-HT1, non-selective according to the method of Middlemiss, 1984, Eur. J. Pharmacol. 101:289-293).

Histamine H1, Central = Histamine H1, Central (Cavia porcellus, UniProt P31389); conditions: significance criteria ≧50% of max stimulation or inhibition; Table 2
Sequence of Histamine H1, Central (P31389 whole entry): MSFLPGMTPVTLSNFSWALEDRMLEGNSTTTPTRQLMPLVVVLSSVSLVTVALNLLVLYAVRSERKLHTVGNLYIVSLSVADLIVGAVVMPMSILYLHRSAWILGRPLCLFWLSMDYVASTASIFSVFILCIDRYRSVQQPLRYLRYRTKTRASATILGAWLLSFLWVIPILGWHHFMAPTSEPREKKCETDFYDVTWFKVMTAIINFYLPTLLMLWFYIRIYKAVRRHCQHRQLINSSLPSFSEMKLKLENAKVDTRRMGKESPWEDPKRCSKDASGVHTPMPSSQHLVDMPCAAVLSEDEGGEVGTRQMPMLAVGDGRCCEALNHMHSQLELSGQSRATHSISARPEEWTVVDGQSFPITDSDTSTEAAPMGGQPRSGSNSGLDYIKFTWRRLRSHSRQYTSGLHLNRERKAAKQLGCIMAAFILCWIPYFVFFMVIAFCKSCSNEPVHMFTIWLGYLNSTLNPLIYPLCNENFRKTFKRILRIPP
Protocol: as §2

Endothelin ETA = Endothelin ETA (Homo sapiens, UniProt P25101); conditions: significance criteria ≧50% of max stimulation or inhibition; Table 2
Sequence of Endothelin ETA (P25101 21-427): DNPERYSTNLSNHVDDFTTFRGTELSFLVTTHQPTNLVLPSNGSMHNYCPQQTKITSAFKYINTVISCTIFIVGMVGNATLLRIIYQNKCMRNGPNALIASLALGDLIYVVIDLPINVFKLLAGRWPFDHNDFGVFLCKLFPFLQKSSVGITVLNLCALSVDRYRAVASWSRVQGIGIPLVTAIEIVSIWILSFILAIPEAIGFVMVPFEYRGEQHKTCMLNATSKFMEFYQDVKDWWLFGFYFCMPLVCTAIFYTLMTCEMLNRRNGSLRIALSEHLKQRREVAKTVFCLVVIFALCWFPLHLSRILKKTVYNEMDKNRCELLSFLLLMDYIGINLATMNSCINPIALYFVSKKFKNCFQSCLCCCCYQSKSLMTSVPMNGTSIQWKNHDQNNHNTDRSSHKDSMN
Protocol: as §2

[2] = tested on: Calcium Channel Type L, Dihydropyridine; conditions: significance criteria ≧50% of max stimulation or inhibition; Table 2
Protocol: as §2

[3] = tested on: Serotonin 5-HT1, non-selective; conditions: significance criteria ≧50% of max stimulation or inhibition; Table 2
Protocol: as §2

Dopamine D2L = Dopamine D2L (Homo sapiens, UniProt P14416); conditions: significance criteria ≧50% of max stimulation or inhibition; Table 2
Sequence of Dopamine D2L (P14416 whole entry): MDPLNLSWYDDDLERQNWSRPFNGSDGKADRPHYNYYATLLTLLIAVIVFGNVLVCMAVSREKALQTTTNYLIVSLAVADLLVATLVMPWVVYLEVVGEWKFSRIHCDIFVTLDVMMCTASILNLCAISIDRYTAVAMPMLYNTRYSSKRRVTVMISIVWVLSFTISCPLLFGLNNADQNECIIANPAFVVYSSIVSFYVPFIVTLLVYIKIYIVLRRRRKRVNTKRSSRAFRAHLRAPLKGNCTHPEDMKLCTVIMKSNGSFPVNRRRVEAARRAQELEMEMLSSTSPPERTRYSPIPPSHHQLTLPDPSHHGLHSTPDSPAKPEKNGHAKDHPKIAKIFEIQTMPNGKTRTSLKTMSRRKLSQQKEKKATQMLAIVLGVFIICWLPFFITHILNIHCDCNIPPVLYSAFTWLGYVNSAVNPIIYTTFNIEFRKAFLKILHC
Protocol: as §2

[4] = tested on: Adrenergic α1, non-selective; conditions: significance criteria ≧50% of max stimulation or inhibition; Table 2
Protocol: as §2

Adrenergic α2 = conditions: significance criteria ≧50% of max stimulation or inhibition; Table 2
Protocol: as §2

Adrenergic β = conditions: significance criteria ≧50% of max stimulation or inhibition; Table 2
Protocol: as §2

Angiotensin AT2 = Angiotensin AT2 (Homo sapiens, UniProt P50052); conditions: significance criteria ≧50% of max stimulation or inhibition; Table 2
Sequence of Angiotensin AT2 (P50052 whole entry): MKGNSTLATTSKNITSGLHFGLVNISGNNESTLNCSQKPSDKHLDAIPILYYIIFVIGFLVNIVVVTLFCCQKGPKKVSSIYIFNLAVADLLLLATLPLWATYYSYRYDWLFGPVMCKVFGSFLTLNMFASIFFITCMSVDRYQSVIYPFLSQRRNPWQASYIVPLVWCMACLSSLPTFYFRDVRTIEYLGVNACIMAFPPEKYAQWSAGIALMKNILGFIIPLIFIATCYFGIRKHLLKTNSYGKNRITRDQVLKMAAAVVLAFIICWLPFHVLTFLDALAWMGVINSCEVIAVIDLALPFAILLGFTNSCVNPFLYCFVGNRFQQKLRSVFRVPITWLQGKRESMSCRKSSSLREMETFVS
Protocol: as §2

[5] = tested on: A431 human epitheloid carcinoma cells; assay: LPA-stimulated calcium mobilization in A431 human epitheloid carcinoma cells; type: cell-based; conditions: for inhibition of LPA-stimulated calcium mobilization: 10 μM compound, FIG. 6
Source text: [The procedure below names another cell line; the source lists this cell line under the same test.] as §1

Edg 8 receptor = biological target: T6, Edg 8 receptor (Homo sapiens, UniProt Q9H228); assay: Intracellular calcium measurement (FLIPR), S1P-stimulated calcium increases in HTC cells expressing Edg 8; type: cell-based; conditions: FIG. 1 and 2
T6 construct: expressed in transfected cells; host or cells: HTC (rat hepatoma) cells
T6 sequence (Q9H228 whole entry): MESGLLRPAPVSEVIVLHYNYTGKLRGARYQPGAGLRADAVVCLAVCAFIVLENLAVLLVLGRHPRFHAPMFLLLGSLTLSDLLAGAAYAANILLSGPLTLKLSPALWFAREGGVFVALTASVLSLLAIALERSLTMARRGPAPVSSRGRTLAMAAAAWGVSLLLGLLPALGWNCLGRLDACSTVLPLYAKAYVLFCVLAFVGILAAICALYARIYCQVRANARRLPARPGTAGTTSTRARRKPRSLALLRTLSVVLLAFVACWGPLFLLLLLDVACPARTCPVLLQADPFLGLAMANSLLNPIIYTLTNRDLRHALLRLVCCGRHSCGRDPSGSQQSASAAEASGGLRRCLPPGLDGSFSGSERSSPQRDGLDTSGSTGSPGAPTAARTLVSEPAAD

Edg 3 receptor = biological target: T7, Edg 3 receptor (Homo sapiens, UniProt Q99500); assay: Intracellular calcium measurement (FLIPR), S1P-stimulated calcium increases in HTC cells expressing Edg 3; type: cell-based; conditions: FIG. 1 and 2
T7 construct: expressed in transfected cells; host or cells: HTC (rat hepatoma) cells
T7 sequence (Q99500 whole entry): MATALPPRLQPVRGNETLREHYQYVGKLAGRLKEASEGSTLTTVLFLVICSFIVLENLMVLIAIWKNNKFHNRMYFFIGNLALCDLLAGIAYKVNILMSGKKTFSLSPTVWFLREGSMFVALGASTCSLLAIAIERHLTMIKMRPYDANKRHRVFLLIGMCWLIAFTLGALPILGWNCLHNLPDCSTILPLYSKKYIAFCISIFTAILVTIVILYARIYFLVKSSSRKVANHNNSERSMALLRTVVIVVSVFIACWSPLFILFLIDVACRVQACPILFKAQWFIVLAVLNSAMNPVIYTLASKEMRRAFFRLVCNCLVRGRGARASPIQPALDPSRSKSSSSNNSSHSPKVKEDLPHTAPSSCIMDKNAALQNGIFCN

[6] = tested on: various targets tested, including other GPCRs, ion channels, and enzymes; assay: Pharmacology profiling (selectivity assays) at various non-Edg targets; type: binding
Source text: Res. Comm. 181:1365-1371. […] Exp Ther. 268:1122-1127. […] 31:997-1004.

Edg 5 receptor = biological target: T8, Edg 5 receptor (Homo sapiens, UniProt O95136); assay: Intracellular calcium measurement (FLIPR), S1P-stimulated calcium increases in HTC cells expressing Edg 5; type: cell-based; conditions: FIG. 1 and 2
T8 construct: expressed in transfected cells; host or cells: HTC (rat hepatoma) cells
T8 sequence (O95136 whole entry): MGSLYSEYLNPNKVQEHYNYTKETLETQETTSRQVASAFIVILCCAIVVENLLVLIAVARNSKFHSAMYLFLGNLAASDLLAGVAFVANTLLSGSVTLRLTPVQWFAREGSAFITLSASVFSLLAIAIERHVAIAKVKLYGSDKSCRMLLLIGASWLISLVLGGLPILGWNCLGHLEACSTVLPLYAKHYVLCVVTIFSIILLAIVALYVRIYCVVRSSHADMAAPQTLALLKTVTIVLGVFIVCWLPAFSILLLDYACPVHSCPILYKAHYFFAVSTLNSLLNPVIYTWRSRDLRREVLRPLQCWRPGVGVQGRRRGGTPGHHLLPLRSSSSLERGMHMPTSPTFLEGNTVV

[7] = tested on: immortalized ovarian surface epithelial cells; assay: LPA-stimulated calcium mobilization in immortalized ovarian surface epithelial cells; type: cell-based; conditions: 10 μM compound, FIG. 3
Source text: [The procedure below names another cell line; the source lists this cell line under the same test.] as §1

[8] = tested on: forskolin-stimulated cAMP production; assay: cAMP assay: LPA inhibition of forskolin-stimulated cAMP production; type: cell-based; conditions: 10 μM compound; FIG. 4
Protocol: Cells were plated in a 96 well format. Treatments were performed directly without any serum starvation. The cells were treated with forskolin to induce cAMP production, followed by LPA or S1P doses in the range from 0.1-10 μM in serum free medium. Following a 30-minute incubation period, the cells were lysed and the level of cAMP was determined.
The cAMP assay was performed using the Tropix cAMP-Screen (Applied BioSystems, Foster City, Calif.). The screen is a competitive immunoassay that utilizes a 96 well assay plate precoated with an anti-cAMP antibody. Cell lysates were added to the precoated plate, along with a cAMP-AP conjugate and a secondary anti-cAMP antibody.
Detection was performed using a substrate solution and chemiluminescent readout. The level of chemiluminescence was inversely proportional to the level of cAMP and was calculated from a standard curve.

SMILES | inhibition of S1P-stimulated calcium increases, Edg 1 (Edg 1 receptor) | inhibition of S1P-stimulated calcium increases, Edg 6 (Edg 6 receptor) | pIC50 (Edg 6 receptor) | inhibition of LPA-stimulated calcium increases, Edg 4 (Edg-4 receptor) | inhibition of LPA-stimulated calcium increases, Edg 7 (Edg-7 receptor) | inhibition of the Edg 2 receptor (Edg-2 receptor) | pIC50 (Edg-2 receptor) | Fold Selective (Edg-2 receptor) | inhibition of LPA-stimulated calcium mobilization [5] | inhibition of S1P-stimulated calcium increases, Edg 8 (Edg 8 receptor) | inhibition of S1P-stimulated calcium increases, Edg 3 (Edg 3 receptor) | activity at various targets tested, including other GPCRs, ion channels, and enzymes [6] | inhibition of S1P-stimulated calcium increases, Edg 5 (Edg 5 receptor) | inhibition of LPA-stimulated calcium mobilization [7] | reversal of LPA inhibition of forskolin-stimulated cAMP production [8] | further results
CCOc1ccccc1N1C(=O)CC(N(O)c2ccccc2)C1=O (stereo not shown) [Compound 101, 1-(2-Ethoxyphenyl)-3-(hydroxyphenylamine)-pyrrolidine-2,5-dione] | did not inhibit | did not inhibit | < 4.70 | did not inhibit | did not inhibit | specifically inhibit | 5.85 | >14.3 | inhibition | did not inhibit | did not inhibit | did not demonstrate any significant activity | did not inhibit |  |  | activity in radioligand binding assay, Muscarinic, non-selective, central [1]: no significant activity; activity in radioligand binding assay, H1 central (Histamine H1, Central): no significant activity; activity in radioligand binding assay, Endothelin ETA (Endothelin ETA): no significant activity; activity in radioligand binding assay, Calcium Channels Type L, DHP [2]: no significant activity; activity in radioligand binding assay, Serotonin 5HT1 non-selective [3]: no significant activity; activity in radioligand binding assay, Dopamine D2L (Dopamine D2L): no significant activity; activity in radioligand binding assay, Adrenergic Alpha 1, non-selective [4]: no significant activity; activity in radioligand binding assay, Adrenergic Alpha 2, non-selective (Adrenergic α2): no significant activity; activity in radioligand binding assay, Adrenergic Beta, non-selective (Adrenergic β): no significant activity; activity in radioligand binding assay, Angiotensin AT2 (Angiotensin AT2): no significant activity; inhibition of LPA-stimulated calcium mobilization, dose response to LPA ([5]; varying concentrations of compound (0-10 μM), FIG. 5): inhibition
CCn1nc(C)c(-c2ccccc2O)c1-c1ccccc1 [Compound 103, 2(1-Ethyl-3-methyl-5-phenyl-1H-pyrazol-4-yl)phenol] | did not inhibit | did not inhibit | < 4.70 | did not inhibit | did not inhibit | specifically inhibited | 6.19 | >31.3 | inhibition | did not inhibit | did not inhibit | did not demonstrate any significant activity | did not inhibit | almost completely inhibited | reverses the inhibitory effects of LPA | 
CCOc1ccccc1N1C(=O)CC(N(O)c2ccc(F)cc2)C1=O (stereo not shown) [Compound 111, 1-(2-Ethoxyphenyl)-3-[(4-fluorophenyl)hydroxylamino]pyrrolidine-2,5-dione] |  |  |  |  |  |  |  |  |  |  |  |  |  |  |  | melting point: 123 to 124 °C
O=C(CC(=O)C(F)(F)F)Nc1cc(-c2ccccc2)n[nH]1 [Compound 201, 4,4,4-trifluoro-3-oxo-N-(5-phenyl-2H-pyrazol-3-yl)butyramide, reference compound] |  |  |  |  |  |  |  |  | not |  |  |  |  | little to no effect | little to no effect | 
